Measurements from patent publication US7183300B2, “Inhibitors of HIV-1 capsid formation: substituted aryl aminomethyl thiazole ureas and analogues thereof” (priority 2004, dated 2007).

Key:
HIV-1 capsid protein = molecular target: T1, HIV-1 capsid protein (Human immunodeficiency virus type 1 group M subtype B, UniProt P12493); experiment: biochemical; type: binding
T1 construct: aqueous solutions containing recombinant, ^15N-labeled HIV-1 capsid protein
Description: Capsid protein ligands are also evaluated by NMR to determine their equilibrium dissociation constant from the capsid binding site.
Concentrated DMSO-d6 solutions of test compounds are prepared for NMR analysis. 2D ^1H-^15N HSQC NMR spectra are obtained for aqueous solutions containing recombinant, ^15N-labeled HIV-1 capsid protein and 10 microliters of added test compound. Data is obtained using a 600 MHz NMR instrument equipped with a cryoprobe. […] Binding is indicated by perturbation relative to capsid protein alone (^1HN δδ>0.1 ppm; ^15N δδ>0.5 ppm) of the chemical shifts of the following residues: Glu29, Lys30, Ala31, Phe32, Ser33, Glu35, Val36, Val59, Gly60, Gly61, His62, Gln63, Ala65, Met144 and Tyr145, all located at or near the apex of a helical bundle (helices 1, 2, 3, 4 and 7).
Equilibrium dissociation constants are calculated from 2D NMR data of selected capsid ligands. […] The chemical shift changes of perturbed by test compound binding are fit to 1:1 binding isotherms.

CA = CA (Human immunodeficiency virus type 1 group M subtype B, UniProt P12493); experiment: mass action calculation of CAP-1 bound to CA/Gag in immature virions; design: species or system HIV-1
Description: This is likely due to the high local concentration of Gag molecules in assembled virions (14 mM), which favors binding by ligands with even modest affinities, e.g., N-(3-chloro-4-methylphenyl)-N′-[2-[([5-[(dimethylamino)-methyl]-2-furyl]-methyl)-sulfanyl]ethyl]urea (CAP-1).
Thus conservatively assuming that cytosolic drug concentrations in the budding virus and cells are equal (100 μM), the percentage of viral CAP-1 molecules bound to CA can be estimated by standard mass action calculations which affords a value for the concentration of bound CAP-1 ([CA:CAP-1]) of 94 μM.

Cc1ccc(NC(=O)NCCSCc2ccc(CN(C)C)o2)cc1Cl [CAP-1, N-(3-chloro-4-methylphenyl)-N′-[2-[([5-[(dimethylamino)-methyl]-2-furyl]-methyl)-sulfanyl]ethyl]urea]
Kd (HIV-1 capsid protein): 820 ± 180 µM
binding to the HIV-1 capsid protein (HSQC chemical shift perturbation) (HIV-1 capsid protein; recombinant 15N-labeled HIV-1 capsid protein): site-specific binding
CAP-1 molecules in immature virions bound to Gag (CA; 100 μM dose): 94%
concentration of bound CAP-1 ([CA:CAP-1]) (CA; assuming drug concentration 100 μM, Gag in assembled virions 14 mM): 94 µM
